Reference: patent publication US9040530B2, “1,2,4-triazine-6-carboxamide kinase inhibitors” (Portola Pharmaceuticals, Inc., priority 2012, dated 2015)

molecular target: T1, full length active recombinant SYK enzyme (Homo sapiens, UniProt P43405); test: Inhibition of Syk tyrosine phosphorylation activity (LANCE TR-FRET kinase assay); assay type: biochemical; conditions: 1 nM active SYK enzyme, 550 nM SYK-substrate, 100 μM ATP, 1 hour at room temperature
T1 construct: full length active recombinant SYK enzyme (Millipore, Calif.); purchased Millipore

Structure (SMILES)	IC50 [nM]
CC[C@@H](Nc1nnc(C(N)=O)c(Nc2ccc(Cl)c(C)c2)n1)C(N)=O [Example 221, (R)-3-((1-amino-1-oxobutan-2-yl)amino)-5-((4-chloro-3-methylphenyl)amino)-1,2,4-triazine-6-carboxamide]	10 to 100
COc1cc(Nc2nc(N[C@H](CC(C)C)C(N)=O)nnc2C(N)=O)ccn1 [Example 186, (R)-3-(1-amino-4-methyl-1-oxopentan-2-ylamino)-5-(2-methoxypyridin-4-ylamino)-1,2,4-triazine-6-carboxamide]	10 to 100
NC(=O)c1nnc(N[C@@H]2CCCC(F)(F)[C@@H]2N)nc1Nc1cccc(-c2ncccn2)c1 [Example 2, 3-(((1R,2R)-2-amino-3,3-difluorocyclohexyl)amino)-5-((3-(pyrimidin-2-yl)phenyl)amino)-1,2,4-triazine-6-carboxamide]	100 to 1000
Cc1cc(F)cc(Nc2nc(N[C@@H]3CCCC(F)(F)[C@@H]3N)nnc2C(N)=O)c1 [Example 202, 3-(((1R,2R)-2-amino-3,3-difluorocyclohexyl)amino)-5-((3-fluoro-5-methylphenyl)amino)-1,2,4-triazine-6-carboxamide]	10 to 100
NC(=O)c1nnc(N[C@@H]2CCCC[C@@H]2N)nc1Nc1ccc(-n2nccn2)cc1 [Example 97, 5-((4-(2H-1,2,3-triazol-2-yl)phenyl)amino)-3-(((1R,2S)-2-aminocyclohexyl)amino)-1,2,4-triazine-6-carboxamide]	10 to 100
CC(C)C[C@@H](Nc1nnc(C(N)=O)c(Nc2ccc3cc[nH]c3c2)n1)C(N)=O [Example 103, (R)-5-((1H-indol-6-yl)amino)-3-((1-amino-4-methyl-1-oxopentan-2-yl)amino)-1,2,4-triazine-6-carboxamide]	1 to 10
Cc1ccc(Nc2nc(N[C@H](CC(F)F)C(N)=O)nnc2C(N)=O)cc1 [Example 143, (R)-3-((1-amino-4,4-difluoro-1-oxobutan-2-yl)amino)-5-(p-tolylamino)-1,2,4-triazine-6-carboxamide]	10 to 100
CC[C@@H](Nc1nnc(C(N)=O)c(Nc2cccc3c2ccn3C)n1)C(N)=O [Example 80, (R)-3-((1-amino-1-oxobutan-2-yl)amino)-5-((1-methyl-1H-indol-4-yl)amino)-1,2,4-triazine-6-carboxamide]	1 to 10
NC(=O)c1nnc(N[C@H](CC2CC2)C(N)=O)nc1Nc1ccc(Cl)cc1 [Example 249, (R)-3-((1-amino-3-cyclopropyl-1-oxopropan-2-yl)amino)-5-((4-chlorophenyl)amino)-1,2,4-triazine-6-carboxamide]	10 to 100
NC(=O)c1nnc(N[C@@H]2CCCC[C@@H]2N)nc1Nc1ccc2cn[nH]c2c1 [Example 126, 5-((1H-indazol-6-yl)amino)-3-(((1R,2S)-2-aminocyclohexyl)amino)-1,2,4-triazine-6-carboxamide]	< 1
Cn1ncc2c(Nc3nc(N[C@@H]4CCCC[C@@H]4N)nnc3C(N)=O)cccc21 [Example 105, 3-(((1R,2S)-2-aminocyclohexyl)amino)-5-((1-methyl-1H-indazol-4-yl)amino)-1,2,4-triazine-6-carboxamide]	1 to 10
NC(=O)c1nnc(N[C@@H]2CCCC[C@@H]2N)nc1Nc1ccc2scnc2c1 [Example 41, 3-(((1R,2S)-2-aminocyclohexyl)amino)-5-(benzo[d]thiazol-5-ylamino)-1,2,4-triazine-6-carboxamide]	1 to 10
CN(C)c1ccc(Nc2nc(N[C@@H]3CCCC[C@@H]3N)nnc2C(N)=O)cc1F [Example 161, 3-(((1R,2S)-2-aminocyclohexyl)amino)-5-((4-(dimethylamino)-3-fluorophenyl)amino)-1,2,4-triazine-6-carboxamide]	10 to 100
CC[C@@H](Nc1nnc(C(N)=O)c(Nc2ccc(Cl)c(OC)c2)n1)C(N)=O [Example 232, (R)-3-((1-amino-1-oxobutan-2-yl)amino)-5-((4-chloro-3-methoxyphenyl)amino)-1,2,4-triazine-6-carboxamide]	10 to 100
CC[C@@H](Nc1nnc(C(N)=O)c(Nc2cnc3ccc(F)cc3c2)n1)C(N)=O [Example 123, (R)-3-((1-amino-1-oxobutan-2-yl)amino)-5-((6-fluoroquinolin-3-yl)amino)-1,2,4-triazine-6-carboxamide]	10 to 100
Cn1ccc2c(Nc3nc(N[C@@H]4CCCC[C@@H]4N)nnc3C(N)=O)cccc21 [Example 81, 3-(((1R,2S)-2-aminocyclohexyl)amino)-5-((1-methyl-1H-indol-4-yl)amino)-1,2,4-triazine-6-carboxamide]	1 to 10
Cc1cc(Nc2nc(N[C@@H]3CCCC[C@@H]3N)nnc2C(N)=O)sn1 [Example 101, 3-(((1R,2S)-2-aminocyclohexyl)amino)-5-((3-methylisothiazol-5-yl)amino)-1,2,4-triazine-6-carboxamide]	10 to 100
NC(=O)c1nnc(N[C@@H]2CCCC[C@@H]2N)nc1Nc1ccc(Cl)cc1 [Example 27, 3-(((1R,2S)-2-aminocyclohexyl)amino)-5-((4-chlorophenyl)amino)-1,2,4-triazine-6-carboxamide]	1 to 10
NC(=O)c1nnc(N[C@@H]2CCCC(F)(F)[C@@H]2N)nc1Nc1ccc2ncccc2c1 [Example 49, 3-(((1R,2R)-2-amino-3,3-difluorocyclohexyl)amino)-5-(quinolin-6-ylamino)-1,2,4-triazine-6-carboxamide]	10 to 100
Cn1ccc2c(Nc3nc(NCC4CCC(=O)N4)nnc3C(N)=O)cccc21 (centres unmarked) [Example 89, 5-((1-methyl-1H-indol-4-yl)amino)-3-(((5-oxopyrrolidin-2-yl)methyl)amino)-1,2,4-triazine-6-carboxamide]	100 to 1000

The next lines start with the values.

IC50 [nM]	Structure (SMILES)
10 to 100	Cn1ncc2c(Nc3nc(N[C@@H]4CCOC[C@@H]4N)nnc3C(N)=O)cccc21 [Example 139, 3-(((3R,4R)-3-aminotetrahydro-2H-pyran-4-yl)amino)-5-((1-methyl-1H-indazol-4-yl)amino)-1,2,4-triazine-6-carboxamide]
10 to 100	CC[C@@H](Nc1nnc(C(N)=O)c(Nc2ccc(C(F)(F)F)cc2)n1)C(N)=O [Example 169, (R)-3-((1-amino-1-oxobutan-2-yl)amino)-5-((4-(trifluoromethyl)phenyl)amino)-1,2,4-triazine-6-carboxamide]
10 to 100	CC[C@@H](Nc1nnc(C(N)=O)c(Nc2ccc3c(c2)CS(=O)(=O)C3)n1)C(N)=O [Example 220, (R)-3-((1-amino-1-oxobutan-2-yl)amino)-5-((2,2-dioxido-1,3-dihydrobenzo[c]thiophen-5-yl)amino)-1,2,4-triazine-6-carboxamide]
10 to 100	CC[C@@H](Nc1nnc(C(N)=O)c(Nc2cccc(C)c2)n1)C(N)=O [Example 13, (R)-3-((1-amino-1-oxobutan-2-yl)amino)-5-(m-tolylamino)-1,2,4-triazine-6-carboxamide]
< 1	CC[C@@H](Nc1nnc(C(N)=O)c(Nc2ccc3c(c2)c(C#N)cn3C)n1)C(N)=O [Example 183, (R)-3-((1-amino-1-oxobutan-2-yl)amino)-5-((3-cyano-1-methyl-1H-indol-5-yl)amino)-1,2,4-triazine-6-carboxamide]
10 to 100	CC[C@@H](Nc1nnc(C(N)=O)c(Nc2ccc3c(c2)COC3)n1)C(N)=O [Example 215, (R)-3-((1-amino-1-oxobutan-2-yl)amino)-5-((1,3-dihydroisobenzofuran-5-yl)amino)-1,2,4-triazine-6-carboxamide]
10 to 100	NC(=O)c1nnc(N[C@@H]2CCCC[C@@H]2N)nc1Nc1ccc(C(F)(F)F)cc1 [Example 168, 3-(((1R,2S)-2-aminocyclohexyl)amino)-5-((4-(trifluoromethyl)phenyl)amino)-1,2,4-triazine-6-carboxamide]
10 to 100	CC[C@@H](Nc1nnc(C(N)=O)c(Nc2ccc(Cl)c(Cl)c2)n1)C(N)=O [Example 235, (R)-3-((1-amino-1-oxobutan-2-yl)amino)-5-((3,4-dichlorophenyl)amino)-1,2,4-triazine-6-carboxamide]
1 to 10	NC(=O)c1nnc(N[C@@H]2CCCC[C@@H]2N)nc1Nc1cccc(C(F)(F)F)c1 [Example 170, 3-(((1R,2S)-2-aminocyclohexyl)amino)-5-((3-(trifluoromethyl)phenyl)amino)-1,2,4-triazine-6-carboxamide]
10 to 100	CC[C@@H](Nc1nnc(C(N)=O)c(Nc2ccc(-n3nccn3)cc2)n1)C(N)=O [Example 98, (R)-5-((4-(2H-1,2,3-triazol-2-yl)phenyl)amino)-3-((1-amino-1-oxobutan-2-yl)amino)-1,2,4-triazine-6-carboxamide]
100 to 1000	CN(C)C(=O)c1ccc(Nc2nc(N[C@@H]3CCCC[C@@H]3N)nnc2C(N)=O)cc1 [Example 62, 3-(((1R,2S)-2-aminocyclohexyl)amino)-5-((4-(dimethylcarbamoyl)phenyl)amino)-1,2,4-triazine-6-carboxamide]
10 to 100	CC[C@@H](Nc1nnc(C(N)=O)c(Nc2ccc3c(cnn3C)c2)n1)C(N)=O [Example 110, (R)-3-((1-amino-1-oxobutan-2-yl)amino)-5-((1-methyl-1H-indazol-5-yl)amino)-1,2,4-triazine-6-carboxamide]
100 to 1000	CC[C@@H](Nc1nnc(C(N)=O)c(Nc2ccc(OC)c(C(F)(F)F)c2)n1)C(N)=O [Example 112, (R)-3-((1-amino-1-oxobutan-2-yl)amino)-5-((4-methoxy-3-(trifluoromethyl)phenyl)amino)-1,2,4-triazine-6-carboxamide]
10 to 100	Cn1ccc2ccc(Nc3nc(N[C@@H]4CCCC(F)(F)[C@@H]4N)nnc3C(N)=O)cc21 [Example 166, 3-(((1R,2R)-2-amino-3,3-difluorocyclohexyl)amino)-5-((1-methyl-1H-indol-6-yl)amino)-1,2,4-triazine-6-carboxamide]
1 to 10	Cc1ccc(Nc2nc(N[C@@H]3CCOC[C@@H]3N)nnc2C(N)=O)cc1Cl [Example 225, 3-(((3R,4R)-3-aminotetrahydro-2H-pyran-4-yl)amino)-5-((3-chloro-4-methylphenyl)amino)-1,2,4-triazine-6-carboxamide]
